Reference: US20140366441A1, “VEGETATIVE PROPAGATION OF SOYBEAN PLANTS IN A HYDROPONIC ENVIRONMENT” (Bayer Cropscience LP, priority 2012, published 2014)

Legend:
Soybean shoots = experiment: Root development of soybean shoot cuttings in 50 ml tubes with water or fertilizer solution ± NAA; format: in vivo; details: NAA at 10^-8 M and 10^-7 M; day 12; FIG. 1B
Experimental: Soybean shoots 10 to 15 cm long were cut from 2 similar plants and placed in 50 ml plastic tubes. One shoot was placed in each tube. The tubes contain 50 ml solutions according to the following design: The base solution was either water or a 1:200 dilution of fertilizer stock solution A, B and C. Stock A contains 958.6 grams of 21-5-20 All Purpose from Jack's Professional, 133.8 grams of 15-0-15 Dark Weather (Jack's Professional) and 60.0 grams of 10-0-0 Magnitrate Special (Peter's Excel) in 2 liter of water. Stock B contains 239.6 grams of 15-5-25 Poinsettia Peat-Lite Special (Jack's Professional) in 2 liters of water. Stock C contains 60.0 grams of Epsom salt (magnesium sulfate) in 1.0 liter of water. NAA (1-Naphthaleneacetic acid, Sigma-Aldrich) was added to either water or fertilizer solutions to concentrations of 0, 10^-9 M, 10^-8 M and 10^-7 M. There were 2 fertilizer (with or without) treatments×4 NAA treatments, totaling 8 treatments. The experiment was repeated 3 times, making a total of 24 tubes. The shoots in the solutions were placed in a greenhouse with 20 hour light cycles at 28° C. and 4 hour night cycles at 22° C.

Soybean shoot cuttings = experiment: Root development of soybean shoot cuttings in tissue culture boxes with fertilizer solution and NAA; format: in vivo; details: higher NAA concentrations (10^-8 M, 10^-7 M, 10^-6 M tested); nine days; FIG. 3
Experimental: Three NAA concentrations at 10^-8 M, 10^-7 M and 10^-6 M with 5 cm, 10 cm and 15 cm long shoots were tested in replicate. Soybean shoot cuttings were taken from plants recovered from tissue culture. Tissue culture boxes (Vitro […]) were used to hold the solutions, and the lids with a 2.5 cm hole in the middle were used to hold the shoots with the help of a cylindrical sponge. NAA solution was obtained from PhytoTechnology Laboratories. Fertilizer was applied from the stock A, B, and C solutions described in Example 1. Three separate 5-liter fertilizer solutions were made by mixing 10 ml each of fertilizer stock solution A, B and C in 4970 ml of tap water. NAA stock solution was added to achieve a final concentration of 10^-8 M, 10^-7 M and 10^-6 M solution, respectively. Soybean shoot cuttings were inserted into the sponge roll, and placed through the lid of the tissue culture box. The shoots in the solutions were placed in a greenhouse with 20 hour light cycles at 27° C. and 4 hour night cycles at 21° C. Data was collected nine days after the shoots were placed in the boxes.

## O=C(O)Cc1cccc2ccccc12 [NAA, 1-Naphthaleneacetic acid]
Soybean shoots
  effect of NAA on root growth (root length): positive effects on root growth
Soybean shoot cuttings
  effect of NAA on root length: kept the roots shorter
  effect of NAA on root number: stimulated more roots from a shoot
